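The compound was tested at five concentrations on cells cultured in 96-well plates, with a 48-hour exposure period. TGI: total growth inhibition.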
Key:
Test in all cases: growth of human tumour cells (NCI), 48 h
EKVX NSCLC = test system: EKVX NSCLC
SNB-75 CNS = test system: SNB-75 CNS
OVCAR-5 ovarian = test system: OVCAR-5 ovarian
HCC-2998 colon = test system: HCC-2998 colon
OVCAR-3 ovarian = test system: OVCAR-3 ovarian
TK-10 renal = test system: TK-10 renal
OVCAR-4 ovarian = test system: OVCAR-4 ovarian
K-562 leukemia = test system: K-562 leukemia
IGROV1 ovarian = test system: IGROV1 ovarian
SW-620 colon = test system: SW-620 colon
SK-OV-3 ovarian = test system: SK-OV-3 ovarian
UACC-257 melanoma = test system: UACC-257 melanoma
HCT-116 colon = test system: HCT-116 colon
HT29 colon = test system: HT29 colon
M14 melanoma = test system: M14 melanoma
RPMI-8226 leukemia = test system: RPMI-8226 leukemia
PC-3 prostate = test system: PC-3 prostate
SN12C renal = test system: SN12C renal
MDA-N = test system: MDA-N
HCT-15 colon = test system: HCT-15 colon
SK-MEL-5 melanoma = test system: SK-MEL-5 melanoma
CCRF-CEM leukemia = test system: CCRF-CEM leukemia
NCI-H460 lung = test system: NCI-H460 lung
RXF 393 renal = test system: RXF 393 renal
SNB-19 CNS = test system: SNB-19 CNS
UACC-62 melanoma = test system: UACC-62 melanoma
NCI-H226 lung = test system: NCI-H226 lung
OVCAR-8 ovarian = test system: OVCAR-8 ovarian
786-0 renal = test system: 786-0 renal
MCF7 breast = test system: MCF7 breast
COLO 205 colon = test system: COLO 205 colon
NCI-H23 lung = test system: NCI-H23 lung
ACHN renal = test system: ACHN renal
MDA-MB-231 breast = test system: MDA-MB-231 breast
SF-268 CNS = test system: SF-268 CNS
T-47D breast = test system: T-47D breast
LOX IMVI melanoma = test system: LOX IMVI melanoma
BT-549 breast = test system: BT-549 breast
SF-295 CNS = test system: SF-295 CNS
DU-145 prostate = test system: DU-145 prostate
KM12 colon = test system: KM12 colon
SF-539 CNS = test system: SF-539 CNS
UO-31 renal = test system: UO-31 renal
A498 renal = test system: A498 renal
SR leukemia = test system: SR leukemia
NCI-H522 lung = test system: NCI-H522 lung
SK-MEL-28 melanoma = test system: SK-MEL-28 melanoma
HS 578T breast = test system: HS 578T breast
U251 CNS = test system: U251 CNS
MOLT-4 leukemia = test system: MOLT-4 leukemia
A549 NSCLC = test system: A549 NSCLC
SK-MEL-2 melanoma = test system: SK-MEL-2 melanoma
CAKI-1 renal = test system: CAKI-1 renal
HOP-92 NSCLC = test system: HOP-92 NSCLC
HOP-62 NSCLC = test system: HOP-62 NSCLC
MDA-MB-435 = test system: MDA-MB-435
NCI/ADR-RES ovarian = test system: NCI/ADR-RES ovarian
MALME-3M melanoma = test system: MALME-3M melanoma
HL-60(TB) leukemia = test system: HL-60(TB) leukemia

Measured: TGI

O=c1[nH]c(=O)n(C2C(CO)OC(CO)C2O)cc1F (stereo unspecified)
not listed: HL-60(TB) leukemia
> 100 µM: all other assays above

BrCc1ccc(CBr)c2c1-c1c(CBr)ccc3ccc(CBr)c-2c13
not listed: SK-MEL-5 melanoma | CCRF-CEM leukemia | RXF 393 renal | COLO 205 colon | NCI-H23 lung | CAKI-1 renal
> 100 µM: all other assays above

From PubChem BioAssay (NCI)
